Earlier results on one compound are cited in patent publication US20220347117A1 (priority 2021, published 2022).

SMILES strings stand for the structures.

For `C=CCN1CC[C@]23c4c5ccc(O)c4O[C@H]2C(=O)CC[C@@]3(O)[C@H]1C5` [naloxone], the pKa result is recorded as “about 7.94”.
